Results published in patent publication US20240383923A1, “HETEROARYL DERIVATIVE AND USE THEREOF” (VORONOI INC., priority 2022, published 2024).
Where two headings read alike, the source gives them in different places.

Tests used:
HER2 enzyme = target: T1, HER2 enzyme (Homo sapiens, UniProt P04626); assay: Biochemical kinase assay for HER2 (Reaction Biology Corp.); settings: ATP 10 μM, 3-fold dilution from 10 μM
T1 construct: purchased Reaction Biology Corp. (San Diego, USA); outsourced assay service
Procedure: A biochemical kinase assay for HER2 was conducted through Reaction Biology Corp. (San Diego, USA).

BT-474 cancer cells = assay: Inhibition of BT-474 cell proliferation (CellTiter-Glo); assay type: cell-based; settings: Homo sapiens, BT-474 cells, 120 hours
Summary of the method: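 BT-474 cells in RPMI-1640 with 20% FBS, seeded 48 h before dosing with 11 three-fold dilutions (final 0.2 nM to 10 μM). Viability read by CellTiter-Glo luminescence 120 h after treatment, triplicate tests. GI50 derived from growth rate (%) versus control.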

N-87 cancer cells = assay: Inhibition of N-87 cell proliferation (CellTiter-Glo); assay type: cell-based; settings: N-87 cells, 72 hours
Procedure: N-87 cancer cells were cultured by using RPMI-1640 medium with 10% FBS. The N-87 cancer cells were seeded to a white clear bottom 96 well plate (Corning) at 5,000 cells per well 24 hours before the […] cancer cells were treated with Example Compounds. Example Compounds were diluted in dimethylsulfoxide (5-fold diluted, total 11 concentrations) and 0.5 μL each was injected so that the final concentration was […]. For the measurement of living cells, the cells were stored at room temperature for 10 minutes using the CellTiter-Glo cell viability reagent (Promega) after 72 hours after the treatment of Example Compounds, and then the luminescence intensity was measured using the reader (SynergyNeo, Biotek).
The result value was calculated as a cell growth rate (%) compared to a control group. Graphs were plotted and GI50 values were calculated using the GraphPad Prism version 8.0 program, and the results are shown in Table 18 below.

Ba/F3 HER2 WT cells = assay: Inhibition of transduced Ba/F3 cell proliferation, HER2 WT; assay type: cell-based; settings: Mus musculus, BaF3, 72 hours, CellTiter-Glo
Procedure: (§1) Transduced Ba/F3 cells were cultured by adding 1 μg/mL of puromycin (Invitrogen) to a medium (RPMI-1640) containing 10% fetal bovine serum (FBS). 3,000 Ba/F3 HER2 WT cells were seeded to a white clear bottom 96 well plate (Corning) 24 hours before the Ba/F3 HER2 WT cells were treated with Example compounds. For Ba/F3 HER2 L755S, Ba/F3 HER2 L755P, Ba/F3 HER2 T862A, and Ba/F3 HER2 L869R/T798I cells, 5,000 cells each were seeded to a white clear bottom 96 well plate (Corning) 24 hours before the cells were treated with the compounds. Example Compounds were diluted in dimethylsulfoxide (3-fold diluted, total 11 concentrations) and 0.5 μL each was injected so that the final concentration was 0.2 nM to 10 μM. For the measurement of living cells, the cells were stored at room temperature for 10 minutes using the CellTiter-Glo cell viability reagent (Promega) after 72 hours after the treatment of Example Compounds, and then the luminescence intensity was measured using the reader (SynergyNeo, Biotek). Each test was repeated twice.
(§2) The result value was calculated as a cell growth rate (%) compared to a control group, and the GI50 values were calculated using the software (GraphPad Prism version 8.0), and the results are shown in Table 19 below.

Ba/F3 HER2 L755S cells = assay: Inhibition of transduced Ba/F3 cell proliferation, HER2 L755S; assay type: cell-based; settings: Mus musculus, BaF3, 72 hours, CellTiter-Glo
Procedure: as §1, §2

Ba/F3 HER2 L755P cells = assay: Inhibition of transduced Ba/F3 cell proliferation, HER2 L755P; assay type: cell-based; settings: Mus musculus, BaF3, 72 hours, CellTiter-Glo
Procedure: as §1, §2

Ba/F3 HER2 T862A cells = assay: Inhibition of transduced Ba/F3 cell proliferation, HER2 T862A; assay type: cell-based; settings: Mus musculus, BaF3, 72 hours, CellTiter-Glo
Procedure: as §1, §2

[1] = test system: Ba/F3 HER2 L869R/T798I cells; assay: Inhibition of transduced Ba/F3 cell proliferation, HER2 L869R/T798I; assay type: cell-based; settings: Mus musculus, BaF3, 72 hours, CellTiter-Glo
Procedure: as §1, §2

HER2 mutant cancers = settings: cited from earlier work; for response of patients with HER2 mutation: phase 1 and 2 clinical trials; for objective response rate (ORR): SUMMIT clinical trial

T1 sequence (P04626 23-1255): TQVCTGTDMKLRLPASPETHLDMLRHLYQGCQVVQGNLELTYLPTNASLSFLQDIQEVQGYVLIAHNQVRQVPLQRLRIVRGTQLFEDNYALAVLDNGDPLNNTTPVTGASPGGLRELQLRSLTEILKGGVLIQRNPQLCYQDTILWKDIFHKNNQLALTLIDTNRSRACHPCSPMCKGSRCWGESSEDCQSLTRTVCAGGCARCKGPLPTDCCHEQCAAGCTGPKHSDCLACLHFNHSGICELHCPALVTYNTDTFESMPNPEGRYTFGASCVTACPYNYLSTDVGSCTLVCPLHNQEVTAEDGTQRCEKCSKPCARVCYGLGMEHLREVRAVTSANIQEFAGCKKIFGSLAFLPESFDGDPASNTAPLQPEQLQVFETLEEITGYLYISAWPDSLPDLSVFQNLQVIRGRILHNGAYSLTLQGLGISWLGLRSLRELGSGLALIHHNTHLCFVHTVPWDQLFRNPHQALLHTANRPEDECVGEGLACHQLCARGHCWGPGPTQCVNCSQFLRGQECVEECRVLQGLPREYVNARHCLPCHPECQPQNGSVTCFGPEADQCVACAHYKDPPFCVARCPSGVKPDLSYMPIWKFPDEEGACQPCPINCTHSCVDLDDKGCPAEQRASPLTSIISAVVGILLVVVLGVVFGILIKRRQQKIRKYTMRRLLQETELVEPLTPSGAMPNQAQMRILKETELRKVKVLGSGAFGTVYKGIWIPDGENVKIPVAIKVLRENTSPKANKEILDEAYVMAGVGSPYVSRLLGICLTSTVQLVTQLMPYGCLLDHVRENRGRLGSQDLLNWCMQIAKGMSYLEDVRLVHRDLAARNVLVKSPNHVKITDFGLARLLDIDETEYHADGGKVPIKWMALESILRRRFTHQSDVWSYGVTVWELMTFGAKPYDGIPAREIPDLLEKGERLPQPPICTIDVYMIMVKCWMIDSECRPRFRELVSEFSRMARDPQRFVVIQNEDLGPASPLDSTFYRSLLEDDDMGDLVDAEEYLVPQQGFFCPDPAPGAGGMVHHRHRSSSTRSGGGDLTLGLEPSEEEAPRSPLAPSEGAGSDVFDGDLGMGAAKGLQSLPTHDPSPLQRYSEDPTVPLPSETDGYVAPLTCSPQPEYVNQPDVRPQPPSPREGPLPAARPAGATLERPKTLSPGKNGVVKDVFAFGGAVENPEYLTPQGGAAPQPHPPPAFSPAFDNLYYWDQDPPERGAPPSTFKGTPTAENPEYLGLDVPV

SMILES	IC50 (HER2 enzyme) [nM]	GI50 (BT-474 cancer cells) [nM]	GI50 (N-87 cancer cells) [nM]	also measured
C=CC(=O)N1CCC(Nc2cc3c(Nc4cc(Cl)c(Oc5cccc(F)c5)cc4OC)ncnc3cc2OC)CC1 [Example 2, 1-(4-((4-((5-chloro-4-(3-fluorophenoxy)-2-methoxyphenyl)amino)-7-methoxyquinazolin-6-yl)amino)piperidin-1-yl)prop-2-en-1-one]	≤ 50	≤ 50	≤ 50	
COc1cc2ncnc(Nc3cc(Cl)c(Oc4cccc(F)c4)cc3OC)c2cc1NC(=O)/C=C/[C@H]1CCCN1C [Example 30, (R,E)-N-(4-((5-chloro-4-(3-fluorophenoxy)-2-methoxyphenyl)amino)-7-methoxyquinazolin-6-yl)-3-(1-methylpyrrolidin-2-yl)acrylamide]	≤ 50	≤ 50	≤ 50	
COc1cc2ncnc(Nc3cc(Cl)c(Oc4ccccn4)cc3OC)c2cc1NC(=O)/C=C/[C@H]1CCCN1C [Example 33, (R,E)-N-(4-((5-chloro-2-methoxy-4-(pyridin-2-yloxy)phenyl)amino)-7-methoxyquinazolin-6-yl)-3-(1-methylpyrrolidin-2-yl)acrylamide]	≤ 50	≤ 50	≤ 50	
COc1cc2ncnc(Nc3cc(F)c(Oc4ccn5ncnc5c4)cc3OC)c2cc1NC(=O)/C(F)=C/[C@H]1CCCN1C [Example 50, (R,Z)—N-(4-((4-([1,2,4]triazolo[1,5-a]pyridin-7-yloxy)-5-fluoro-2-methoxyphenyl)amino)-7-methoxyquinazolin-6-yl)-2-fluoro-3-(1-methylpyrrolidin-2-yl)acrylamide]	≤ 50	≤ 50	≤ 50	GI50 (Ba/F3 HER2 WT cells): ≤ 50 nM; GI50 (Ba/F3 HER2 L755S cells): ≤ 50 nM; GI50 (Ba/F3 HER2 L755P cells): ≤ 50 nM; GI50 (Ba/F3 HER2 T862A cells): ≤ 50 nM; GI50 [1]: ≤ 50 nM
COc1cc2ncnc(Nc3cc(C(F)(F)F)c(Oc4ccn5ncnc5c4)cc3OC)c2cc1NC(=O)/C(F)=C/[C@H]1CCCN1C [Example 54, (R,Z)—N-(4-((4-([1,2,4]triazolo[1,5-a]pyridin-7-yloxy)-2-methoxy-5-(trifluoromethyl)phenyl)amino)-7-methoxyquinazolin-6-yl)-2-fluoro-3-(1-methylpyrrolidin-2-yl)acrylamide]	≤ 50	≤ 50		
COc1cc2ncnc(Nc3cc(C)c(Oc4ccn5ncnc5c4)cc3OC)c2cc1NC(=O)/C(F)=C/[C@H]1CCCN1C [Example 111, (R,Z)—N-(4-((4-([1,2,4]triazolo[1,5-a]pyridin-7-yloxy)-2-methoxy-5-methylphenyl)amino)-7-methoxyquinazolin-6-yl)-2-fluoro-3-(1-methylpyrrolidin-2-yl)acrylamide]	≤ 50	≤ 50	≤ 50	
COc1cc2ncnc(Nc3cc(C)c(Oc4ccn5ncnc5c4)cc3OC)c2cc1NC(=O)/C(Cl)=C\[C@H]1CCCN1C [Example 136, (R,E)-N-(4-((4-([1,2,4]triazolo[1,5-a]pyridin-7-yloxy)-2-methoxy-5-methylphenyl)amino)-7-methoxyquinazolin-6-yl)-2-chloro-3-(1-methylpyrrolidin-2-yl)acrylamide]		≤ 50	≤ 50	
COc1cc2ncnc(Nc3ccc(F)c(Cl)c3)c2cc1NC(=O)/C=C/CN1CCCCC1 [dacomitinib]				response of patients with HER2 mutation (HER2 mutant cancers): partial responses
CCOc1cc2ncc(C#N)c(Nc3ccc(OCc4ccccn4)c(Cl)c3)c2cc1NC(=O)/C=C/CN(C)C [neratinib]				objective response rate (ORR) (HER2 mutant cancers; HER2 mutant breast cancer patients): 24%; objective response rate (ORR) (HER2 mutant cancers; HER2 mutant lung cancer patients): 3.8%; objective response rate (ORR) (HER2 mutant cancers; other cancers having HER2 mutations): 0%; response of patients with HER2 mutation (HER2 mutant cancers): partial responses

Further lines, with some results ahead:

IC50 (HER2 enzyme) [nM]	GI50 (BT-474 cancer cells) [nM]	GI50 (N-87 cancer cells) [nM]	SMILES	also measured
≤ 50	≤ 50	≤ 50	C=CC(=O)N1CCC(Oc2cc3c(Nc4cc(Cl)c(Oc5cccc(F)c5)cc4OC)ncnc3cc2OC)CC1 [Example 8, 1-(4-((4-((5-chloro-4-(3-fluorophenoxy)-2-methoxyphenyl)amino)-7-methoxyquinazolin-6-yl)oxy)piperidin-1-yl)prop-2-en-1-one]	
≤ 50	≤ 50	≤ 50	COc1cc2ncnc(Nc3cc(Cl)c(Oc4cccc(F)c4)cc3OC)c2cc1NC(=O)/C=C/CN(C)C [Example 25, (E)-N-(4-((5-chloro-4-(3-fluorophenoxy)-2-methoxyphenyl)amino)-7-methoxyquinazolin-6-yl)-4-(dimethylamino)but-2-enamide]	
≤ 50	≤ 50	≤ 50	COc1cc2ncnc(Nc3cc(C)c(Oc4ccn5ncnc5c4)cc3OC)c2cc1NC(=O)/C=C/[C@H]1CCCN1C [Example 29, (R,E)-N-(4-((4-([1,2,4]triazolo[1,5-a]pyridin-7-yloxy)-2-methoxy-5-methylphenyl)amino)-7-methoxyquinazolin-6-yl)-3-(1-methylpyrrolidin-2-yl)acrylamide]	
≤ 50	≤ 50	≤ 50	COc1cc2ncnc(Nc3cc(Cl)c(Oc4cccc(F)c4)cc3OC)c2cc1NC(=O)/C(F)=C\[C@H]1CCCN1C [Example 42, (R,E)-N-(4-((5-chloro-4-(3-fluorophenoxy)-2-methoxyphenyl)amino)-7-methoxyquinazolin-6-yl)-2-fluoro-3-(1-methylpyrrolidin-2-yl)acrylamide]	GI50 (Ba/F3 HER2 WT cells): ≤ 50 nM; GI50 (Ba/F3 HER2 L755S cells): ≤ 50 nM; GI50 (Ba/F3 HER2 L755P cells): ≤ 50 nM; GI50 (Ba/F3 HER2 T862A cells): ≤ 50 nM; GI50 [1]: ≤ 50 nM
≤ 50	≤ 50		COc1cc(Oc2ccn3ncnc3c2)c(C)cc1Nc1ncnc2ccc(NC(=O)/C(F)=C/[C@H]3CCCN3C)cc12 [Example 92, (R,Z)—N-(4-((4-([1,2,4]triazolo[1,5-a]pyridin-7-yloxy)-2-methoxy-5-methylphenyl)amino)quinazolin-6-yl)-2-fluoro-3-(1-methylpyrrolidin-2-yl)acrylamide]	
≤ 50	≤ 50	≤ 50	COc1cc2ncnc(Nc3cc(Cl)c(Oc4ccn5ncnc5c4)cc3OC)c2cc1NC(=O)/C(F)=C/[C@H]1CCCN1C [Example 128, (R,Z)—N-(4-((4-([1,2,4]triazolo[1,5-a]pyridin-7-yloxy)-5-chloro-2-methoxyphenyl)amino)-7-methoxyquinazolin-6-yl)-2-fluoro-3-(1-methylpyrrolidin-2-yl)acrylamide]	GI50 (Ba/F3 HER2 WT cells): ≤ 50 nM; GI50 (Ba/F3 HER2 L755S cells): ≤ 50 nM; GI50 (Ba/F3 HER2 L755P cells): ≤ 50 nM; GI50 (Ba/F3 HER2 T862A cells): ≤ 50 nM; GI50 [1]: ≤ 50 nM
	≤ 50	≤ 50	COc1cc2ncnc(Nc3cc(C)c(Oc4ccn5ncnc5c4)cc3OC)c2cc1NC(=O)/C(F)=C\[C@H]1CCCN1 [Example 134, (R,E)-N-(4-((4-([1,2,4]triazolo[1,5-a]pyridin-7-yloxy)-2-methoxy-5-methylphenyl)amino)-7-methoxyquinazolin-6-yl)-2-fluoro-3-(pyrrolidin-2-yl)acrylamide]	
